The source of these data is ChEMBL document CHEMBL5726342, “NMDA receptor modulators and uses related thereto” (2017).

As a reminder, the IC50 is the midpoint of a concentration-inhibition curve.

This assay is described as follows: Inhibition Assay: Two-electrode voltage-clamp recordings were made from Xenopus laevis oocytes expressing recombinant rat GluN1/GluN2A, GluN1/GluN2B, GluN1/GluN2C, GluN1/GluN2D, GluA1, or GluK2 receptors following injection of 5-10 ng of cRNA synthesized according to manufacturers' protocols (Ambin, mMessage, mMachine). cDNAs used were rat GluN1-1a (GenBank accession numbers U11418 and U08261; hereafter GluN1), GluN2A (D13211), GluN2B (U11419), GluN2C (M91563), GluN2D (L31611), GluA1 (X17184), GluK2 (Z11548). The current under voltage-clamp was recorded during perfusion with recording solution containing (in mM) 90 NaCl, 1.0 KCl, 0.5 BaCl2, 0.005 EDTA, and 10 HEPES at pH 7.4 (23° C.). Glass micropipettes had resistances of 0.3-1.0 MS2 and were filled with 3.0 M KCl. The membrane potential was clamped at −40 mV during the experiment. Recordings were digitized at 10 Hz and analyzed off line. 20 mM stock solutions of test compounds in 100% DMSO were made and diluted to obtain the final concentration; final DMSO content was 0.05-0.5% (vol/vol). Oocytes expressing GluK2 homomeric receptors were first treated with 10 μM concanavalin A (10 minutes). NMDA receptor responses were obtained by challenging oocytes with 100 μM glutamate plus 30 μM glycine; GluA1 and GluK2 receptors responses were recorded during application of 100 μM glutamate. […]. The format is cell-based. For orientation: Two-electrode voltage clamp holds a large cell at a set potential and records current.

As for `CCc1ccc(C2C(C(=O)c3ccncc3)=C(O)C(=O)N2CCc2c[nH]c3cc(C)ccc23)cc1` (configuration not stated), the IC50 stood at 9 µM. With `CCc1ccc(C2C(C(=O)c3cccnc3)=C(O)C(=O)N2CCc2c[nH]c3cc(C)ccc23)cc1` (configuration not stated) the figure was 7 µM.
